Measurements from patent US20230295181A1, “INHIBITOR OF APOPTOSIS (IAP) PROTEIN ANTAGONISTS” (Sanford Burnham Prebys Medical Discovery Institute, priority 2020, published 2023).
Structures can show the parent of a compound that is named as a salt.

Test system: SKOV-3 cancer cell lines
Experiment: SKOV-3 cell viability after treatment with 10 μM test compound
Format: cell-based
Details: for % viability after treatment with 10 micromolar of test compound (SKOV-3 cells): 10 micromolar test compound; for viability at 10 µM: Homo sapiens, SK-OV-3, 10 micromolar test compound, SKOV-3 cells
Experimental: SKOV-3 cancer cell lines were treated with a test compound, either as a pure enantiomer or a mixture of stereoisomers, at a concentration of 10 μM. Cell viability was evaluated following treatment with a compound as disclosed in Table B. Viability of cancer cells following treatment is indicated according to the following legend:
A=0-25% viability B=26-50% viability C=>50% viability

SMILES: C=CCC1(CC=C)C[C@@H]2OCC[C@H](NC(=O)[C@H](C)NC)C(=O)N2[C@@H]1C(=O)NC(c1ccccc1)c1ccccc1 [Compound 48, (4S)-8,8-diallyl-N-benzhydryl-4-((S)-2-(methylamino)propanamido)-5-oxooctahydropyrrolo[2,1-b][1,3]oxazepine-7-carboxamide hydrochloride]
- % viability after treatment with 10 micromolar of test compound (SKOV-3 cells) (hydrochloride): C (C=>50% viability)

SMILES: CN[C@@H](C)C(=O)N[C@H]1CCO[C@H]2CC(C(C)C)(C(C)C)[C@@H](C(=O)NC(c3ccccc3)c3ccccc3)N2C1=O [Compound 60, (4S)—N-benzhydryl-8,8-diisopropyl-4-((S)-2-(methylamino)propanamido)-5-oxooctahydropyrrolo[2,1-b][1,3]oxazepine-7-carboxamide hydrochloride]
- % viability after treatment with 10 micromolar of test compound (SKOV-3 cells) (hydrochloride): A (A=0-25% viability)

SMILES: C=CCC1(CC=C)C[C@@H]2OCC[C@H](NC(=O)[C@H](C)NC)C(=O)N2[C@@H]1C(=O)NC(c1ccccc1)c1ccccc1 [Compound 49, (4S)-8,8-diallyl-N-benzhydryl-4-((S)-2-(methylamino)propanamido)-5-oxooctahydropyrrolo[2,1-b][1,3]oxazepine-7-carboxamide hydrochloride]
- % viability after treatment with 10 micromolar of test compound (SKOV-3 cells) (hydrochloride): B (B=26-50% viability)

SMILES: CN[C@@H](C)C(=O)N[C@H]1Cc2c([nH]c3ccccc23)[C@H]2CC(C)(C)[C@@H](C(=O)NC(c3ccccc3)c3ccccc3)N2C1=O [Compound 54, (6S)—N-benzhydryl-2,2-dimethyl-6-((S)-2-(methylamino)propanamido)-5-oxo-1,2,3,5,6,7,12,12b-octahydropyrrolo[1′,2′:1,2]azepino[3,4-b]indole-3-carboxamide hydrochloride]
- viability at 10 µM: > 50%

SMILES: CN[C@@H](C)C(=O)N[C@H]1CCO[C@H]2CC(CCc3ccccc3)(CCc3ccccc3)C(C(=O)N[C@@H]3CCCc4ccccc43)N2C1=O (stereo partly drawn) [Compound 23, (4S,9aS)-4-((S)-2-(methylamino)propanamido)-5-oxo-8,8-diphenethyl-N—((R)-1,2,3,4-tetrahydronaphthalen-1-yl)octahydropyrrolo[2,1-b][1,3]oxazepine-7-carboxamide hydrochloride]
- viability at 10 µM: 26 to 50%

SMILES: CN[C@@H](C)C(=O)N[C@H]1Cc2cc(OC)ccc2[C@H]2CC(C)(C)C(C(=O)N[C@@H]3CCCc4ccccc43)N2C1=O (stereo partly shown) [Compound 34]
- % viability after treatment with 10 micromolar of test compound (SKOV-3 cells): C (C=>50% viability)

SMILES: CCC1(CC)C[C@@H]2SCC[C@H](NC(=O)[C@H](C)NC)C(=O)N2[C@@H]1C(=O)N[C@@H]1CCCc2ccccc21 [Compound 37, (4S,9aS)-8,8-diethyl-4-((S)-2-(methylamino)propanamido)-5-oxo-N—((R)-1,2,3,4-tetrahydronaphthalen-1-yl)octahydropyrrolo[2,1-b][1,3]thiazepine-7-carboxamide hydrochloride]
- % viability after treatment with 10 micromolar of test compound (SKOV-3 cells) (hydrochloride): B (B=26-50% viability)

SMILES: CN[C@@H](C)C(=O)N[C@H]1CCO[C@H]2CC(C)(C)[C@@H](CN[C@@H]3CCSc4ccccc43)N2C1=O [Compound 68, (S)—N-((4S,7S,9aS)-8,8-dimethyl-5-oxo-7-((((R)-thiochroman-4-yl)amino)methyl)octahydropyrrolo[2,1-b][1,3]oxazepin-4-yl)-2-(methylamino)propanamide dihydrochloride]
- % viability after treatment with 10 micromolar of test compound (SKOV-3 cells) (dihydrochloride): C (C=>50% viability)

SMILES: C=CCC1C[C@@H]2SCC[C@H](NC(=O)[C@H](C)NC)C(=O)N2[C@@H]1C(=O)N[C@@H]1CCCc2ccccc21 (stereo partly drawn) [Compound 27, (4S,9aS)-8,8-allyl-4-((S)-2-(methylamino)propanamido)-5-oxo-N—((R)-1,2,3,4-tetrahydronaphthalen-1-yl)octahydropyrrolo[2,1-b][1,3]thiazepine-7-carboxamide hydrochloride]
- % viability after treatment with 10 micromolar of test compound (SKOV-3 cells) (hydrochloride): B (B=26-50% viability)

SMILES: C=CCC1(CC=C)C[C@@H]2OCC[C@H](NC(=O)[C@H](C)NC)C(=O)N2[C@@H]1C(=O)NC(c1ccccc1)c1ccccc1 [Compound 50, (4S)-8,8-diallyl-N-benzhydryl-4-((S)-2-(methylamino)propanamido)-5-oxooctahydropyrrolo[2,1-b][1,3]oxazepine-7-carboxamide hydrochloride]
- % viability after treatment with 10 micromolar of test compound (SKOV-3 cells) (hydrochloride): B (B=26-50% viability)

SMILES: CN[C@@H](C)C(=O)N[C@@H]1C(=O)N2[C@H](CC(C)[C@H]2C(=O)N[C@@H]2CCCc3ccccc32)OC2CCCCC21 (stereo partly shown) [Compound 64, hydrochloride]
- viability at 10 µM: 0 to 25%

SMILES: CCC1C[C@@H]2OCC[C@H](NC(=O)[C@H](C)NC)C(=O)N2C1C(=O)N[C@@H]1CCCc2ccccc21 (stereo partly drawn) [Compound 20, (4S)-8,8-ethyl-4-((S)-2-(methylamino)propanamido)-5-oxo-N—((R)-1,2,3,4-tetrahydronaphthalen-1-yl)octahydropyrrolo[2,1-b][1,3]oxazepine-7-carboxamide hydrochloride]
- viability at 10 µM: 26 to 50%

SMILES: CN[C@@H](C)C(=O)N[C@H]1Cc2cc(OC)ccc2[C@H]2CC(C)(C)[C@H](C(=O)N[C@@H]3CCCc4ccccc43)N2C1=O [Compound 8, (6S,11bR)-9-methoxy-2,2-dimethyl-6-((S)-2-(methylamino)propanamido)-5-oxo-N—((R)-1,2,3,4-tetrahydronaphthalen-1-yl)-2,3,5,6,7,11b-hexahydro-1H-benzo[c]pyrrolo[1,2-a]azepine-3-carboxamide hydrochloride]
- viability at 10 µM: 26 to 50%

SMILES: CCC1(CC)C[C@@H]2OCC[C@H](NC(=O)[C@H](C)NC)C(=O)N2[C@@H]1C(=O)NC(c1ccccc1)c1ccccc1 [Compound 59, (4S)—N-benzhydryl-8,8-diethyl-4-((S)-2-(methylamino)propanamido)-5-oxooctahydropyrrolo[2,1-b][1,3]oxazepine-7-carboxamide hydrochloride]
- % viability after treatment with 10 micromolar of test compound (SKOV-3 cells) (hydrochloride): A (A=0-25% viability)

SMILES: CN[C@@H](C)C(=O)N[C@H]1CCO[C@H]2CC(C(C)C)(C(C)C)[C@@H](C(=O)NC(c3ccccc3)c3ccccc3)N2C1=O [Compound 61, (4S)—N-benzhydryl-8,8-diisopropyl-4-((S)-2-(methylamino)propanamido)-5-oxooctahydropyrrolo[2,1-b][1,3]oxazepine-7-carboxamide hydrochloride]
- % viability after treatment with 10 micromolar of test compound (SKOV-3 cells) (hydrochloride): B (B=26-50% viability)

SMILES: CN[C@@H](C)C(=O)N[C@H]1Cc2cc(OC)ccc2[C@H]2CC(C)(C)C(C(=O)N[C@@H]3CCCc4ccccc43)N2C1=O (stereo partly shown) [Compound 7]
- % viability after treatment with 10 micromolar of test compound (SKOV-3 cells): B (B=26-50% viability)

SMILES: C=CCC1(CC=C)C[C@@H]2OCC[C@H](NC(=O)[C@H](C)NC)C(=O)N2[C@@H]1C(=O)NC(c1ccccc1)c1ccccc1 [Compound 51, (4S)-8,8-diallyl-N-benzhydryl-4-((S)-2-(methylamino)propanamido)-5-oxooctahydropyrrolo[2,1-b][1,3]oxazepine-7-carboxamide hydrochloride]
- % viability after treatment with 10 micromolar of test compound (SKOV-3 cells) (hydrochloride): B (B=26-50% viability)

SMILES: CN[C@@H](C)C(=O)N[C@H]1CCO[C@H]2CC(CCc3ccccc3)(CCc3ccccc3)[C@@H](C(=O)N[C@@H]3CCCc4ccccc43)N2C1=O [Compound 24, (4S,9aS)-4-((S)-2-(methylamino)propanamido)-5-oxo-8,8-diphenethyl-N—((R)-1,2,3,4-tetrahydronaphthalen-1-yl)octahydropyrrolo[2,1-b][1,3]oxazepine-7-carboxamide hydrochloride]
- % viability after treatment with 10 micromolar of test compound (SKOV-3 cells) (hydrochloride): B (B=26-50% viability)

SMILES: C=CCC1(CC=C)C[C@@H]2SCC[C@H](NC(=O)[C@H](C)NC)C(=O)N2[C@@H]1C(=O)N[C@@H]1CCCc2ccccc21 [Compound 31, (4S,9aS)-8,8-diallyl-4-((S)-2-(methylamino)propanamido)-5-oxo-N—((R)-1,2,3,4-tetrahydronaphthalen-1-yl)octahydropyrrolo[2,1-b][1,3]thiazepine-7-carboxamide hydrochloride]
- % viability after treatment with 10 micromolar of test compound (SKOV-3 cells) (hydrochloride): B (B=26-50% viability)

SMILES: C=CCC1(CC=C)C[C@@H]2OCC[C@H](NC(=O)[C@H](C)NC)C(=O)N2C1C(=O)N[C@@H]1CCCc2ccccc21 (stereo partly drawn) [Compound 12, (4S,9aS)-8,8-diallyl-4-((S)-2-(methylamino)propanamido)-5-oxo-N—((R)-1,2,3,4-tetrahydronaphthalen-1-yl)octahydropyrrolo[2,1-b][1,3]oxazepine-7-carboxamide hydrochloride]
- viability at 10 µM: 26 to 50%

SMILES: CCC1(CC)C[C@@H]2OCC[C@H](NC(=O)[C@H](C)NC)C(=O)N2[C@@H]1C(=O)NC(c1ccccc1)c1ccccc1 [Compound 58, (4S)—N-benzhydryl-8,8-diethyl-4-((S)-2-(methylamino)propanamido)-5-oxooctahydropyrrolo[2,1-b][1,3]oxazepine-7-carboxamide hydrochloride]
- % viability after treatment with 10 micromolar of test compound (SKOV-3 cells) (hydrochloride): B (B=26-50% viability)

SMILES: CN[C@@H](C)C(=O)N[C@H]1CCO[C@H]2CC(CCc3ccccc3)(CCc3ccccc3)[C@@H](C(=O)N[C@@H]3CCCc4ccccc43)N2C1=O [Compound 25, (4S,9aS)-4-((S)-2-(methylamino)propanamido)-5-oxo-8,8-diphenethyl-N—((R)-1,2,3,4-tetrahydronaphthalen-1-yl)octahydropyrrolo[2,1-b][1,3]oxazepine-7-carboxamide hydrochloride]
- % viability after treatment with 10 micromolar of test compound (SKOV-3 cells) (hydrochloride): B (B=26-50% viability)
